Source: US7569695B2, “Dyes for the detection or quantification of desirable target molecules” (Enzo Life Sciences, Inc., priority 2005, dated 2009)

Assays:
[1] = test system: 78 bp amplicon from the anti-sense C construct; assay: Amplification of nucleic acids in the presence of dye using a standard PCR machine (Example 34); assay type: biochemical; conditions: for amplicon synthesis (gel analysis, FIG. 2): 20 cycles
Procedure: The experiment shown in Example 33 was repeated using a standard PCR machine for synthesis to see if the effects observed in Example 33 was dependent upon the rapid heating and cooling steps used in the Light Cycler.
A master mixture was made up of: • 500 µl of 2× PCR mix described in example 33 • 20 µl of 25 mM MgCl2 • 175 µl of DEPC treated H2O • 10 ul of 1 u/l ung (Epicentre) • 10 µl of 10 mg/ml BSA (New England Biolabs, Beverly, Mass.) • 10 l Taq polymease (Perkin Elmer)+10 µl of TaqStart (Clontech) PCR conditions were 2.5 µl of target template+2.0 l of dye was added to 15.5 µl of Master mixture incubated at 45° C. for 10 minutes and then amplified using cycles of: • a) 94° C. for 30 seconds • b) 65° C. for 30 seconds • c) 72° C. for 1 minute
A duplicate set of samples was amplified with one set being taken out after 20 cycles of amplification and the second set undergoing 40 cycles. […] The other effect previously observed was also seen, i.e. non-target amplicon synthesis seen in the no Dye reaction (lane 1) was reduced with the 1:200 dilution of SYBR Green and the 1:10 dilution of Dye 109 again repeating the results of Example 33.

anti-sense C amplicon = assay: Amplification of various amounts of target with fixed dye levels, 29 cycles (Example 37); assay type: biochemical; conditions: 1:1000 dilution of SYBR Green
Procedure: In the previous experiments, a fixed amount of target was amplified in the presence of varying level of dyes. The eventual use of these dyes is going to be with a fixed amount of dye and varying levels of targets. As such, an experiment was carried out using previously determined optimal levels of dyes and various amounts of input target (again using the anti-sense C as a model). • Dilution 1=1:100,000 • Dilution 2=1:1,000,000 • Dilution 3=1:10,000,000 • Dilution 4=1:100,000,000 • Dilution 5=1:1,000,000,000 • Dilution 6=1:10,000,000,000
Selected amounts of target template were amplified on the Light Cycler (Roche) in the presence of various amounts of Dye 122, Dye 109a and SYBR Green.
A master mixture was made up of: • 380 l of 2×PCR mix described in Example 33 • 15.2 l of 25 mM MgCl2 • 190.0 l of DEPC treated H2O • 7.6 l of 10 mg/ml BSA (New England Biolabs, Beverly, Mass.) • 7.6 l Taq polymease (Perkin Elmer)+7.6 l of TaqStart (Clontech)
2.0 l of target template (1:50,000 dilution of the antisense C amplicon)+2.0 l of various dye concentrations were added to 16 µl of Master mixture and amplified as described previously in Example 33 stopping after 29 cycles. Dye additions were from the 1:1000 dilution of SYBR Green, 1:30 of Dye 109a and 1:30 of Dye 122.
At the highest input level (Dil 2 1:1,000,000 dilution of amplicon) no evidence of amplification is seen in the sample without dye.

For `CCCN(CCCN(C)C)c1cc(/C=C2/Sc3ccccc3N2C)c2ccccc2[n+]1-c1ccccc1` [SYBR Green, reference compound], the “amplicon synthesis (gel analysis, FIG. 2)” value ([1]; 1:200 dilution of SYBR Green, lanes 5 and 6) was “a single discrete band”, the “amplicon synthesis (gel analysis, FIG. 2)” value ([1]; all other SYBR Green dilutions) was “no synthesis was evident” and the “non-target amplicon synthesis compared to the no Dye reaction” value ([1]; 40 cycles, 1:200 dilution of SYBR Green) was “reduced”. For the same compound, the “amplification product (gel analysis, FIG. 5)” value (anti-sense C amplicon; Dil 2 (1:1,000,000) target input) was “faint but visible band” and the “amplification product (gel analysis, FIG. 5)” value (anti-sense C amplicon; further dilutions of target) was “do not show any evidence of an amplification product”.
